Data published in US12162836B2, “N-acyl-{4-[(4-aryl-phenyl)sulfonylmethyl]piperidine} compounds and their therapeutic use” (Modern Biosciences Limited, priority 2019, dated 2024).
Values after ≈ are worked out from the molar mass of the structure shown.

Assays:
[1] = test system: collagen-induced arthritis in DBA/1j mice; test: Mouse Collagen-Induced Arthritis; type: in vivo; settings: 10 mg/kg/day, once daily for 14 days, oral gavage; arthritic index vs control
Method: Seven- to eight-week-old male DBA/1j mice were used for all procedures. Animals were housed in groups of 10, and were maintained at 21° C.±2° C. on a 12-hour light/dark cycle with food and water ad libitum. Complete Freund's adjuvant (CFA) was prepared by emulsifying bovine type II collagen at 4 mg/mL with a 4 mg/mL suspension of Mycobacterium tuberculosis H37Ra in Incomplete Freund's Adjuvant (IFA) (0.85 mL paraffin oil and 0.15 mL mannide monooleate) in a 1:1 (v/v) ratio. All mice were immunised subcutaneously with 200 μg of bovine type II collagen in CFA. 21 days later, all mice were immunised subcutaneously with 100 μg of bovine type II collagen in IFA. The mice started to develop signs and symptoms of arthritis following the ‘booster’ immunisation.
For macroscopic assessment of arthritis, the following signs were monitored in each paw of each mouse three times per week and summed to generate the Arthritic Index (A1) (the maximum A1 for one animal is 16): • 0=no visible effects of arthritis. • 1=oedema and/or erythema of 1 digit. • 2=oedema and/or erythema of 2 digits. • 3=oedema and/or erythema of more than 2 digits. • 4=severe arthritis of entire paw and digits.
Animals were sorted into treatment groups with a mean arthritic index of 2.5 and then dosed once daily for 14 days with compound: by oral gavage for test compounds, or by subcutaneous injection at a dose of 10 mg/kg for the positive control, etanercept. After completion of the experiment, the mice were sacrificed.
The data were analysed by generating an average of the arthritic index across each treatment group. The mean arthritic index was then compared to the arthritic index of control (untreated) animals using the following formula to generate a percentage inhibition of disease.

hERG = hERG (Homo sapiens (Human), UniProt Q12809); test: hERG Ion Channel binding assay (3H astemizole displacement); settings: human, membranes of HEK293 cells stably expressing hERG, pH 7.4, probe 3H astemizole (1.5 nM); 30 μM; displacement of 3H astemizole, hERG-HEK293 membranes
Method: (§1) The activity of the compounds against the hERG ion channel was tested using a binding assay in stably transfected Human Embryonic Kidney cells (hERG-HEK293). hERG-HEK293 cells were cultured in MEM medium (Invitrogen)+10% FBS, glutamine and non-essential amino acids at 37° C. To prepare membranes, cells were homogenised on ice, centrifuged at 650×g for 10 minutes at +4° C., and the resulting supernatant centrifuged at 48000×g for 10 minutes at +4° C. The pellet was resuspended in ice-cold 50 mM Tris-HCl buffer, 5 mM KCl (pH 8.5) and stored frozen in aliquots until use.
(§2) For binding assays, membranes were thawed, re-suspended in assay buffer (10 mM HEPES pH 7.4, 0.1% BSA, 5 mM potassium chloride, 0.8 mM magnesium chloride, 130 mM sodium chloride, 1 mM sodium-EGTA, 10 mM glucose) and incubated with ^3H astemizole (1.5 nM), and with or without test compound at 25° C. for 60 minutes. Binding was determined following filtration of the membranes and washing in Tris-HCl buffer by scintillation counting of ^3H astemizole.
(§3) The degree of binding of compounds to the hERG ion channel (%) was obtained by measuring the binding of ^3H astemizole and its displacement by test compound. A value of 0% indicates no binding and a value of 100% indicates complete displacement of the radiolabelled ligand.

hERG ion channel = hERG ion channel (Homo sapiens (Human), UniProt Q12809); test: as above
Method: as §1, §2, §3

[2] = Aqueous solubility in FaSSIF; type: physicochemical; settings: for solubility at 16 h: kinetic from dmso stock, pH 6.5, 16 hours, room temperature
Method: Aqueous solubility was measured by equilibration of compounds with fasted state simulated intestinal fluid (FaSSIF) and quantified spectrophotometrically.
Preparation of blank FaSSIF: 0.21 g of sodium hydroxide (NaOH) pellets, 1.97 g of dihydrogen sodium phosphate (NaH2PO4.2H2O) and 3.09 g of sodium chloride (NaCl) were dissolved in 400 mL of deionised water. The pH was adjusted to 6.5 using 1 M hydrochloric acid and further deionised water added to a final volume of 500 mL.
Preparation of FaSSIF: 0.056 g of SIF Powder (containing sodium taurocholate and lecithin) (Pharses A G) was dissolved in 25 mL of blank FaSSIF and stirred until the powder was completely dissolved. The solution was allowed to stand for 2 hours during which it became opalescent; it was used within 24 hours. The final solution composition was characterised as follows: • Sodium taurocholate: 3 mM • Lecithin: 0.75 mM • Osmolarity: 270±10 mOsmol • pH: 6.5
The optical density was measured at the end of the incubation period for test compounds and a reference used to determine solubility. In brief, two samples were prepared for each determination: a reference sample consisting of a stock solution of test compound in DMSO diluted in system solution (a phosphate free, low absorption buffer) and propanol; and a test sample (prepared in triplicate) consisting of 0.5 mL FaSSIF spiked with test compound at 0.2 mM. Each sample was incubated at room temperature for 16 hours with constant shaking at 250 rpm. At the end of the incubation period, 0.3 mL of each sample was filtered through a pION filter plate (PION, Woburn MA), diluted 1:1 with propanol and scanned using UV spectrophotometry at Amax ([…]) using a Spectra Max Plus—Version 2.1000 (Molecular Devices, Sunnyvale, CA), with pSOL Explorer solubility determination software (pION, Woburn, MA).
FaSSIF solubility was calculated using the following formula:
[formula] • wherein: • “OD” is the optical density; • “Cr” is the concentration of the reference (33.4 μM); and • “molecular weight” is for the test compound (e.g., 381.44 for ABD735).

[3] = Human Hepatocyte Stability; type: in vitro ADME; settings: pooled human hepatocytes, 1 μM, 60 minute incubation; for half-life at 1 μM: read-out: Human t1/2
Method: (§4) Metabolic stability of test compounds was measured by determination of the rate of disappearance of the compound when incubated in the presence of human hepatocytes, a primary source of the most important enzymes (cytochrome P450s) involved in drug metabolism. Study of drug stability in the presence of primary hepatocytes is accepted as a valuable model permitting rapid prediction of in vivo drug stability.
(§5) Human hepatocytes were obtained from a commercial source and viability was assessed using a trypan blue solution prior to use. Test compounds (final concentration 1 μM, 0.1 DMSO, 0.9% acetonitrile) or a marker (diclofenac or diltiazem, final assay concentration 1 μM, 0.1% DMSO, 0.9% acetonitrile) were incubated with pooled hepatocytes for a 60 minute period and samples removed at up to 6 time points and analysed by LC-MS/MS for the presence/amount of test compounds.
(§6) Each compound was incubated for 0, 5, 15, 30, 45, or 60 minutes. The reactions were stopped by the addition of methanol containing an internal standard (1 μM Tolbutamide) at the appropriate time points, mixed and placed at −20° C. for 1 hour to quench and allow protein to precipitate. All samples were centrifuged (2500× g, 20 minutes, 4° C.). The aliquots were analysed using LC-MS/MS. Reactions were performed in duplicate at 37° C.
(§7) Data were processed, and the results plotted as In(concentration) vs. time. The elimination rate constant (slope of the regression line, k) was calculated using the following formula, where C(t) is the concentration at time t and C(0) is the starting concentration:
(§8) The half-life (t1/2) was calculated using the following formula: […]
(§9) The intrinsic clearance (Clint) was calculated using the following formula, where [cell] is the hepatocyte concentration in the assay: […]

human hepatocytes = test: Human Hepatocyte Stability; type: in vitro ADME; settings: human hepatocytes
Method: as §4, §5, §6, §7, §8, §9

[4] = test system: Thp1 human monocytic cells; test: Thp1 Monocyte ATP Production Assay (ATPlite); type: cell-based; settings: Homo sapiens, THP-1, Thp1 cells, 24 hour incubation, mean of 2 independent experiments
Method: In vitro potency of test compounds was determined by incubation with Thp1 human monocytic cells and subsequent determination of Adenosine TriPhosphate (ATP) levels using firefly luciferase.
ATP is present in all metabolically active cells. When cells lose integrity, their ability to synthesise ATP is rapidly lost. […] See, e.g., Kang et al., 2015; Jiang et al., 2013. Levels of ATP can be monitored using a system based on firefly (Photinus pyralis) luciferase (see, e.g., Auld et al., 2009) using commercially available kits. A system known as ATPlite™ was using to measure effects of the test compounds on cellular viability in vitro. This one-step assay system is an adenosine triphosphate (ATP) monitoring system based on the production of light caused by the reaction of ATP from the cells with added luciferase and D-luciferin, as illustrated in the reaction scheme below:
Thp1 cells were plated at 112500 cells per well in 125 μL RPMI-1640 (no glucose) with 1% FBS in 96-well plates. Test compounds were prepared as 100 mM solutions in DMSO. These stock solutions were diluted in DMSO and then diluted 1000× in culture medium (RPMI) before being added directly to the wells so as to give the desired final compound concentration. After a 24 hour incubation at 37° C./5% CO2, ATPLite™ (Perkin Elmer) was added to each well (1:10 v/v, 10 μL). The plate was then incubated at room temperature for 5 minutes and the emitted light was quantified on Viewlux with a measurement time of 0.3 seconds and binning 4×4.
The average results for each test compound were expressed as a percent (%) of the average control value reflecting cell viability. The average values across the concentrations tested were then plotted and the IC50 for was calculated by fitting the data to a 4-parameter IC50 equation using software from Graf it (Erithacus Software). Each experiment was repeated twice and the data are presented as the mean IC50 from both experiments.

Sequence of hERG ion channel (Q12809 whole entry): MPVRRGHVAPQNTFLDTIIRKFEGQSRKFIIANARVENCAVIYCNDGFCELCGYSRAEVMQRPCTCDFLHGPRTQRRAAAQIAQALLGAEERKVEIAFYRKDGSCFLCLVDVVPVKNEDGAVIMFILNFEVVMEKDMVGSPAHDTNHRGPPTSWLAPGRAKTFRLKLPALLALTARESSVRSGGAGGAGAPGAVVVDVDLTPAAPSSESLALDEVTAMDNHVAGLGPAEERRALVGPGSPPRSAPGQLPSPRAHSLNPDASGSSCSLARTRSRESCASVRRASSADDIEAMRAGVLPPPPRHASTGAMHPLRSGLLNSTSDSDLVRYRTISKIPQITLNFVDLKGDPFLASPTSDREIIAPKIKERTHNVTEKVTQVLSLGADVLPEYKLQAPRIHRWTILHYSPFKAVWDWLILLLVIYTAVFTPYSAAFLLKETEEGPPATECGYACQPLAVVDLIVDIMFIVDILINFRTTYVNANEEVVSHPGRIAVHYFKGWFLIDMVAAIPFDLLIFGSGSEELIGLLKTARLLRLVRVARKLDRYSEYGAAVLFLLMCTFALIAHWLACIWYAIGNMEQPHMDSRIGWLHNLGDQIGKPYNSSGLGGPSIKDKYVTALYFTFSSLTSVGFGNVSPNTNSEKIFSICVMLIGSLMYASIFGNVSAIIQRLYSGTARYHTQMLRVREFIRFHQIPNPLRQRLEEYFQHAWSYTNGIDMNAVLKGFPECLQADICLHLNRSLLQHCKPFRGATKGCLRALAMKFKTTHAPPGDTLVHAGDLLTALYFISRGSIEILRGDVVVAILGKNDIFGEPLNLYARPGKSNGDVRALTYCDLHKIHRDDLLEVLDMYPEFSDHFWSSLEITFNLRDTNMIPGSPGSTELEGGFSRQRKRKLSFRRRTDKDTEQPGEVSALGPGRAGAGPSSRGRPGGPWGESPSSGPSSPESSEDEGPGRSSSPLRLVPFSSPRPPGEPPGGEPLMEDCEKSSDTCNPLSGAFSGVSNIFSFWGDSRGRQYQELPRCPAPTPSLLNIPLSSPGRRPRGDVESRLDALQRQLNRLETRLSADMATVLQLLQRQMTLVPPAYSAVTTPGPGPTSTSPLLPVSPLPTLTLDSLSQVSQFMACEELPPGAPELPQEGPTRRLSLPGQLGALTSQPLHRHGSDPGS
Sequence of hERG (Q12809 whole entry): as above

| SMILES | % inhibition of disease [1] [%] | inhibition at 60 min, 30 µM (hERG) [%] | cardiac safety profile, hERG (in words) (hERG ion channel) | solubility at 16 h [2] [µg/mL] | hepatocyte CLint at 1 μM [3] [µL/min/1e6 cells] | half-life at 1 μM [3] [h] | metabolic stability (in words) (human hepatocytes) | IC50 ([4]; 8-point concentration range from 100 μM to 100 nM) [µM] | solubility (in words) [2] | IC50 ([4]; 9-point concentration range from 10 μM to 10 nM) [µM] |
| --- | --- | --- | --- | --- | --- | --- | --- | --- | --- | --- |
| C[C@]1(O)CC[C@@H](NS(=O)(=O)c2ccc(-c3ccc(Cl)cc3C#N)cc2)CC1 [HMC-C-01-B] | 26 |  |  |  |  |  |  |  |  |  |
| CC(=O)N1CCC(C(C)(C)S(=O)(=O)c2ccc(-c3ccc(F)cc3F)cc2)CC1 [NASMP-18, 1-(4-(2-((2′,4′-Difluoro-[1,1′-biphenyl]-4-yl)sulfonyl)propan-2-yl)piperidin-1-yl)ethan-1-one] |  | 14 | particularly positive profile | 39 (≈ 92.5 µM) | 3.8 | 5.87 | exceptionally good stability | 28.5 |  |  |
| CC(=O)N1CCC(C2(S(=O)(=O)c3ccc(-c4ccc(F)cc4F)cc3)CC2)CC1 [NASMP-21, 1-(4-(1-((2′,4′-Difluoro-[1,1′-biphenyl]-4-yl)sulfonyl)cyclopropyl)piperidin-1-yl)ethan-1-one] |  | 1 | particularly positive profile | 71 (≈ 169 µM) | 13.4 | 1.74 |  |  | particularly good solubility | 6.1 |
